Assay results: patent US9511050B2, “Methods and compositions for treating cancer” (GEORGETOWN UNIVERSITY, priority 2013, dated 2016)
pIC50: −log10 of the molar value. Like-named read-outs stand apart in the source and are kept apart here.

How the values were obtained:
Format in all cases: cell-based
[1] = system: TC71 (human ESFT cell line); assay: IC50 activity in TC71 cells
Protocol: (§1) Compounds provided in Table 2 were prepared using methods similar to those described herein. The structures and IC50 activities of particular compounds in PANC1 (a human pancreatic carcinoma), TC32 (human ESFT cell line), and TC71 (human ESFT cell line) cells are summarized in Table 2.
Growth inhibition of ESFT cells was measured for various concentrations of particular compounds.

[2] = system: PANC1 (a human pancreatic carcinoma); assay: IC50 activity in PANC1 cells
Protocol: as §1

[3] = system: TC32 (human ESFT cell line); assay: IC50 activity in TC32 cells
Protocol: as §1

[4] = Homo sapiens, TC-71, TC71 cells
[5] = Homo sapiens, PANC-1, PANC1 cells
[6] = Homo sapiens, TC-32, TC32 cells
[7] = PANC1 cells, read-out: IC50 PANC 1

SMILES	pIC50 [1, 4]	pIC50 [2, 5]	pIC50 [3, 6]	pIC50 ([1]; TC71 cells)	potency compared with YK-4-279 ([1]; TC71 cells)	pIC50 ([3]; TC32 cells)	pIC50 [2, 7]
N#Cc1ccc(C(=O)CC2(O)C(=O)Nc3c(Cl)ccc(Cl)c32)cc1 (centres unmarked) [PT-1-11]	4.91	≤ 4.40	4.99				
COc1ccccc1C(=O)CC1(O)C(=O)Nc2c(Cl)ccc(Cl)c21 (centres unmarked) [PT-1-12]	≤ 4.40	≤ 4.40	≤ 4.40				
COc1cc(C(=O)CC2(O)C(=O)Nc3c(Cl)ccc(Cl)c32)cc(OC)c1OC (centres unmarked) [PT-1-13]	≤ 4.40	≤ 4.40	≤ 4.40				
CCOc1ccc(C(=O)CC2(O)C(=O)Nc3c(Cl)ccc(Cl)c32)cc1 (centres unmarked) [PT-1-14]	5.45	4.95	5.57				
O=C(CC1(O)C(=O)Nc2c(Cl)ccc(Cl)c21)c1ccc(C(F)(F)F)cc1 (centres unmarked) [PT-1-15]	5.16	4.96	5.53				
O=C(CC1(O)C(=O)Nc2c(Cl)ccc(Cl)c21)c1ccc(OC(F)(F)F)cc1 (centres unmarked) [PT-1-16]	≤ 4.40	≤ 4.40	≤ 4.40				
CN(C)c1ccc(C(=O)CC2(O)C(=O)Nc3c(Cl)ccc(Cl)c32)cc1 (centres unmarked) [PT-1-17]	6.40	≤ 4.40	6.59	6.53	appeared to be more potent	6.55	
COc1cccc(C(=O)CC2(O)C(=O)Nc3c(Cl)ccc(Cl)c32)c1 (centres unmarked) [PT-1-18]	≤ 4.40	≤ 4.40	≤ 4.40				
COc1ccc(C(=O)CC2(O)C(=O)Nc3c(Cl)ccc(Cl)c32)c(OC)c1 (centres unmarked) [PT-1-19]	5.55	4.64	5.58				
COc1cccc(C(=O)CC2(O)C(=O)Nc3c(Cl)ccc(Cl)c32)c1OC (centres unmarked) [PT-1-20]	≤ 4.40	≤ 4.40	≤ 4.40				
COc1ccc(C(=O)CC2(O)C(=O)Nc3c(Cl)ccc(Cl)c32)cc1OC (centres unmarked) [PT-1-21]	≤ 4.40	≤ 4.40	≤ 4.40				
COc1cc(OC)cc(C(=O)CC2(O)C(=O)Nc3c(Cl)ccc(Cl)c32)c1 (centres unmarked) [PT-1-22]	≤ 4.40	≤ 4.40	5.05				
COc1ccc(C(=O)CC2(O)C(=O)Nc3c(Cl)ccc(Cl)c32)c(OC)c1OC (centres unmarked) [PT-1-23]	5.35	≤ 4.40	5.57				
COc1ccc(C(=O)/C=C2\C(=O)Nc3c(Cl)ccc(Cl)c32)cc1 [PT-1-33]	5.79	≤ 4.40	5.99				
CN(C)c1ccc(C(=O)/C=C2\C(=O)Nc3c(Cl)ccc(Cl)c32)cc1 [PT-1-38]			6.54			6.42	
COc1ccc(C(=O)/C=C2\C(=O)Nc3c(Cl)ccc(Cl)c32)c(OC)c1 [PT-1-39]	5.74	5.27	5.98	5.63		5.78	5.17
COc1ccc(C(=O)/C=C2\C(=O)Nc3c(Cl)ccc(Cl)c32)c(OC)c1OC [PT-1-41]	5.67	5.54	5.92	5.80		5.79	5.29
CCOc1ccc(C(=O)/C=C2\C(=O)Nc3c(Cl)ccc(Cl)c32)cc1 [PT-1-43]	5.25	4.96	5.85				
CN(C)c1ccc(C(=O)/C=C2/C(=O)Nc3c(Cl)ccc(Cl)c32)cc1 [PT-1-53]	5.39	5.66	≤ 4.40				
COc1ccc(C(=O)/C=C2/C(=O)Nc3c(Cl)ccc(Cl)c32)cc1 [PT-1-54]	5.87		5.82	5.66		5.59	
O=C(CC1(O)C(=O)Nc2c(Cl)ccc(Cl)c21)c1ccc(Oc2ccccc2)cc1 (centres unmarked) [PT-1-60]	≤ 4.40	≤ 4.40	≤ 4.40				
CSc1ccc(C(=O)CC2(O)C(=O)Nc3c(Cl)ccc(Cl)c32)cc1 (centres unmarked) [PT-1-67]	6.04	4.55	6.01	5.85		5.92	
CC(C)Oc1ccc(C(=O)CC2(O)C(=O)Nc3c(Cl)ccc(Cl)c32)cc1 (centres unmarked) [PT-1-69]	≤ 4.40	≤ 4.40	≤ 4.40				
COc1ccc(C(=O)CC2(O)C(=O)Nc3ccccc32)cc1 (centres unmarked) [PT-1-267]	≤ 4.40	≤ 4.40	≤ 4.40				
COc1ccc(C(=O)CC2(O)C(=O)Nc3cc(Br)cc(Br)c32)cc1 (centres unmarked) [PT-1-271]	≤ 4.40	≤ 4.40	≤ 4.40				

SMILES	pIC50 [1, 4]	pIC50 [2, 5]	pIC50 [3, 6]	pIC50 ([1]; TC71 cells)	potency compared with YK-4-279 ([1]; TC71 cells)	pIC50 ([3]; TC32 cells)	pIC50 [2, 7]
COc1ccc(C(=O)CC2(O)C(=O)Nc3cccc(Cl)c32)cc1 (centres unmarked) [PT-1-275]	≤ 4.40	≤ 4.40	≤ 4.40				
C/C=C1\NC(=O)C(O)(CC(=O)c2ccc(OC)cc2)\C1=C/C (centres unmarked) [PT-2-37]	≤ 4.40	≤ 4.40	≤ 4.40				
COc1ccc(C(=O)CC2(O)C(=O)Nc3cc(Cl)c(Cl)cc32)cc1 (centres unmarked) [PT-2-39]	≤ 4.40	≤ 4.40	≤ 4.40				
COc1ccc(C(=O)CC2(O)C(=O)Nc3c(Cl)cccc32)cc1 (centres unmarked) [PT-2-52]	≤ 4.40	≤ 4.40	≤ 4.40				
COc1ccc(C(=O)CC2(O)C(=O)Nc3ccc(Cl)cc32)cc1 (centres unmarked) [PT-2-56]	≤ 4.40	≤ 4.40	4.91				
COc1ccc(CC(=O)CC2(O)C(=O)Nc3c(Cl)ccc(Cl)c32)cc1 (centres unmarked) [PT-2-59]	≤ 4.40	≤ 4.40	≤ 4.40				
COc1ccc(C(=O)CC2(O)C(=O)N(C)c3ccccc32)cc1 (centres unmarked) [PT-2-64]	≤ 4.40	≤ 4.40	≤ 4.40				
COc1ccc(C(=O)CC2(O)C(=O)N(C)c3c(Cl)ccc(Cl)c32)cc1 (centres unmarked) [PT-2-69]		≤ 4.40	5.66			5.64	
CCCC(=O)CC1(O)C(=O)N(C)c2c(Cl)ccc(Cl)c21 (centres unmarked) [PT-2-71]	≤ 4.40	≤ 4.40	≤ 4.40				
COc1ccc(C(=O)CC2(OC)C(=O)Nc3c(Cl)ccc(Cl)c32)cc1 (centres unmarked) [PT-2-78]	≤ 4.40	≤ 4.40	≤ 4.40				
COc1ccc(C(=O)CC2(OC)C(=O)N(C)c3c(Cl)ccc(Cl)c32)cc1 (centres unmarked) [PT-2-79]	4.77	4.95	4.92				
O=C(CC1(O)C(=O)Nc2c(Cl)ccc(Cl)c21)c1ccc(Cl)cc1 (centres unmarked) [YK-4-275]	4.62	4.96	≤ 4.40				
O=C(CC1(O)C(=O)N(Cc2ccccc2)c2c(Cl)ccc(Cl)c21)c1ccc(Cl)cc1 (centres unmarked) [YK-4-276]	≤ 4.40	≤ 4.40	≤ 4.40				
O=C(CC1(O)C(=O)Nc2c(Cl)ccc(Cl)c21)c1ccc(I)cc1 (centres unmarked) [YK-4-277]	≤ 4.40	≤ 4.40	≤ 4.40				
O=C(CC1(O)C(=O)Nc2c(Cl)ccc(Cl)c21)c1ccc(F)cc1 (centres unmarked) [YK-4-278]	≤ 4.40	≤ 4.40	≤ 4.40				
Cc1ccc(C(=O)CC2(O)C(=O)Nc3c(Cl)ccc(Cl)c32)cc1 (centres unmarked) [YK-4-280]	4.52	≤ 4.40	4.92				
O=C(CC1(O)C(=O)Nc2c(Cl)ccc(Cl)c21)c1cccc(Cl)c1 (centres unmarked) [YK-4-281]	4.53	≤ 4.40	5.14				
O=C(CC1(O)C(=O)Nc2c(Cl)ccc(Cl)c21)c1ccccc1Cl (centres unmarked) [YK-4-282]	≤ 4.40	≤ 4.40	≤ 4.40				
O=C(CC1(O)C(=O)Nc2c(Cl)ccc(Cl)c21)c1ccc(Br)cc1 (centres unmarked) [YK-4-283]	4.59	4.90	5.05				
Nc1ccc(C(=O)CC2(O)C(=O)Nc3c(Cl)ccc(Cl)c32)cc1 (centres unmarked) [YK-4-284]	≤ 4.40	≤ 4.40	≤ 4.40				
O=C(CC1(O)C(=O)Nc2c(Cl)ccc(Cl)c21)c1ccccc1 (centres unmarked) [YK-4-285]	≤ 4.40	≤ 4.40	≤ 4.40				
O=C(CC1(O)C(=O)Nc2c(Cl)ccc(Cl)c21)c1ccc([N+](=O)[O-])cc1 (centres unmarked) [YK-4-286]	5.04	≤ 4.40	5.33				
O=C(CC1(O)C(=O)Nc2c(Cl)ccc(Cl)c21)c1ccc(Cl)c(Cl)c1 (centres unmarked) [YK-4-287]	4.80	4.90	5.20				
O=C(CC1(O)C(=O)Nc2c(Cl)ccc(Cl)c21)c1ccc(Cl)c(Cl)c1Cl (centres unmarked) [YK-4-288]	5.03	≤ 4.40	5.52				
O=C(CC1(O)C(=O)Nc2c(Cl)ccc(Cl)c21)c1ccc(O)cc1 (centres unmarked) [YK-4-289]	≤ 4.40	≤ 4.40	≤ 4.40				
